How the values were obtained:
Format in all cases: cell-based, human
[1] = system: p-PLCγ2^Y1217; test: Western blot of PLCγ2 phosphorylation in NAMECs; conditions: 5 μM, within 30 min
Procedure: (§1) To obtain protein extracts, cells were scraped from culture dishes in chilled PBS, centrifuged at 450×g for 4 min at 4° C., washed again in PBS, and incubated for 20 min in ice cold lysis buffer containing freshly added protease inhibitors (0.5 mM phenylmethylsulfonyl fluoride, 10 μg/ml leupeptin, 2 μg/ml aprotonin). Lysates were cleared by centrifugation at 12,100×g, 4° C. for 10 min and the supernatant was snap frozen in liquid nitrogen. Protein concentrations were determined using Bradford Dye (Bio-Rad). 30 μg total protein was separated by SDS-PAGE on NuPAge gels (Invitrogen), and transferred to Hybond-P PVDF membrane (GE Healthcare). The membrane was probed with specific primary antibodies and antibody-protein complex detected by HRP-conjugated antibodies and ECL-Plus (Amersham Biosciences).
(§2) Protein levels of both phospholipase Cγ1 and 2 (PLCγ1 and PLCγ2), which transduce signals from PDGFRα/β to PKCα, were also elevated in these cells by an average of 4.57 and 2.38-fold, respectively (FIG. 4E). To test whether PLCγ is being activated by PDGFR through phosphorylation, NAMECs were treated with PDGFR inhibitors.

[2] = system: p-PLCγ1^Y783; test: Western blot of PLCγ1 phosphorylation in NAMECs; conditions: 5 μM, within 30 min
Procedure: as §1, §2

[3] = system: p-PKCα^S497 and p-PKCα^T638; test: Western blot of PKCα phosphorylation in NAMECs
Procedure: as §1
We subsequently sought to determine whether PKCα activation was directly dependent upon PDGFR-PLCγ. Exposure of NAMECs to a PLCγ inhibitor (U73122) reduced active p-PKCα^S497 and p-PKCα^T638 by 1.3 and 3.1-fold respectively within 30 min, and 6.3 and 4.2-fold respectively by 60 min (FIG. 13C); total PKCα level was unchanged (FIG. 13C). The inhibition of PDGFR in NAMECs, similarly, led to a loss of PKCα phosphorylation (p-PKCα^S497: 2.8 fold, p-PKCα^T638: 5.9 fold), as illustrated once again by the loss of active p-PKCα^S497 and p-PKCα^T638 within 30 min, while total PKCα remained constant (FIG. 13D).

[4] = system: NAMEC-Tom-Ras and HMLE-GFP-Ras cells; test: Co-mixed NAMEC-Tom-Ras (CSC-enriched) and HMLE-GFP-Ras (CSC-depleted) cells, kinase inhibition, FACS; conditions: dose response, co-mixed cells
Procedure: (§3) Kinase inhibitors and other chemical compounds were obtained from various sources listed below. These were dissolved or diluted in DMSO. To set up the screen, 75,000 NAMEC-Tom and 15,000 HMLE-GFP cells were seeded into each well of a 6-well tissue culture plate. The following day, spent media was replaced with 3 ml of fresh media. Inhibitors were added to achieve the desired range of concentrations. For control treatment, DMSO was added. Fresh media containing inhibitors were replaced daily during the six day period. For analysis, cells were trypsinized with 1 ml 0.15% trypsin, diluted with 1 ml serum-containing media and fixed with 1 ml of 4% paraformaldehyde. FACS analysis was performed to analyze the proportion of surviving cells relative to DMSO-treated control for NAMEC-Tom or HMLE-GFP cells. To test the effects of these inhibitors on CSCs and non-CSCs, NAMEC-Ras-Tom and […] were used in similar co-mixed experiments.
as §3, with “experiments. To assess the fraction of cells undergoing apoptosis, cells were exposure to agents for three days without fresh media and then analyzed with Annexin V-APC (BD Biosciences).” for “experiments.”
Having determined that NAMEC-Ras cells were enriched for CSCs, we mixed NAMEC-Ras cells labeled with tdTomato (NAMEC-Tom-Ras) and HMLE-Ras cells labeled with GFP (HMLE-GFP-Ras) and re-tested the effects of kinase inhibition as described above. […] In addition, these NAMEC-Tom-Ras cells were more resistant to paclitaxel (11.3 fold) and staurosporine (32.8 fold) than the corresponding HMLE-GFP-Ras cells used as controls (FIG. 3C).

[5] = system: p-B-Raf, p-c-Raf, p-MEK1/2 and p-ERK1/2; test: Western blot of MAPK/ERK signaling in NAMECs; conditions: 30 min
Procedure: as §1
We assessed whether mesenchymal cells contained higher Ras expression or activated Ras. […] We assessed whether enhanced ERK signaling in the mesenchymal cell state was primarily mediated through the activated PDGFR and PKCα signaling cascade, rather than through activation via a Ras-Raf pathway. To test this, we exposed NAMECs to PKCα-specific inhibitors for 30 min. This reduced p-B-Raf and p-c-Raf expression, and led to the loss of p-MEK1/2 and p-ERK1/2 (FIG. 5F). […] Therefore, the enhanced activity of ERK signaling during EMT was, in part, conferred by signaling through PDGFR and PKCα.

[6] = system: p-FRA1^S265; test: Western blot of FRA1 phosphorylation in NAMECs; conditions: applied to NAMECs for 30 min
Procedure: as §1
FRA1 is a member of the Fos family of transcription factors, which is also comprised of c-Fos, FosB and Fra2. Together with the Jun family of transcription factors composed of c-Jun, JunB and JunD, individual members of the Fos and Jun family associate with one another to form heterodimeric activator protein-1 (AP-1) complexes that bind and transcriptionally regulate target gene expression when phosphorylated (Eferl and Wagner, 2003).
We assessed whether the observed increased p-FRA1 activity in the mesenchymal cells could be further augmented by elevated ERK signaling during EMT. Accordingly, inhibition of ERK1/2 phosphorylation with a MEK inhibitor was able to decrease p-FRA1^S265 levels by 65% but not the levels of total FRA1 or p-c-Jun (FIG. 5G), confirming that ERK1/2 signaling promoted p-FRA1 activity.

For COc1cc2ncnc(N3CCN(C(=O)Nc4ccc(Oc5ccccc5)cc4)CC3)c2cc1OC [PDGFR Inh III], the “effect on p-PLCγ2^Y1217” value [1] was “reduced”, the “effect on p-PLCγ1^Y783” value [2] was “reduced” and the “effect on PKCα phosphorylation” value [3] was “reduced phosphorylation of PKCα”. For the same molecule, the “which cell type is more sensitive / selected against” value [4] was “NAMEC-Ras-Tom cells were more sensitive”, the “effect on phospho-proteins of ERK signaling” value [5] was “downregulation of B-Raf and C-Raf phosphorylation, and dampening ERK signaling” and the “effect on phosphorylation of FRA1” value [6] was “blocked the phosphorylation of FRA1”.

Source: patent US10106778B2, “Selective targeting of cancer stem cells” (Whitehead Institute for Biomedical Research, priority 2012, dated 2018)
